Assay results taken from patent US20260325645A1, “IMPROVEMENTS IN OR RELATING TO COMPOSITIONS FOR IMPROVEMENT OF PHOTODYNAMIC THERAPY” (SYDERMA LTD, priority 2023, published 2026).
Entries after “also recorded” stand apart in the source; their conditions may differ.

Assays:
[1] = tested on: ATM; conditions: reference 10; cited from earlier work
[2] = references 11, 12, 13; cited from earlier work
[3] = tested on: ATR; conditions: reference 10; cited from earlier work
[4] = tested on: active lesions (acne); test: Combined analysis of acne lesion clearance, Examples 3, 6 and 7 (FIG. 6); type: in vivo, human; conditions: pre- and final post-treatment data of Examples 3, 6 and 7; P 0.005 paired, two-tailed T-test
[5] = clinical trials; reference 17; cited from earlier work
[6] = tested on: DNA repair; conditions: in vitro, through modulating the activity of ATM/ATR kinases, as well as PARP; references 10,11,12,14; cited from earlier work
[7] = tested on: actinic keratoses; test: Theobromine alone on actinic keratoses (comparative Examples 4 and 5); type: in vivo, human; conditions: 0.5% theobromine solution applied once, 1 month later
Experimental: A person presented with actinic keratoses on their scalp. Three actinic keratoses were selected by a qualified dermatologist and treated once with 0.5% theobromine topical preparation solution. The theobromine solution was prepared in 25% ethanol and 50% glycerol, adjusted to pH 8 via 100 mM sodium hydrogen carbonate solution. For treatment, theobromine solution was applied to the selected lesions of the scalp in a thin aqueous film using 50 μL of the solution per lesion (1 drop). The solution was left to dry and permeate the skin for 20 minutes. The position of the lesions was marked with a water-soluble marker and the lesions were photographed. The patient was reviewed 1 month later by a qualified dermatologist and the lesions were compared with the baseline photographs.
A person presented with actinic keratoses on their face and scalp. An actinic keratosis was selected by a qualified dermatologist on their right cheek and treated once with 0.5% theobromine topical preparation solution. The theobromine solution was prepared in 25% ethanol and 50% glycerol, adjusted to pH 8 via 100 mM sodium hydrogen carbonate solution. For treatment, theobromine solution was applied to the selected lesions of the […] in a thin aqueous film using 50 μL of the solution per lesion (1 drop). The solution was left to dry and permeate the skin for 20 minutes. […]

[8] = tested on: acne; test: Theobromine treatment of acne (comparative Examples 8-11); type: in vivo, human; conditions: 0.5% theobromine topical; for improvement of acne: data not shown
Experimental: (§1) A patient presented with acne bilaterally on their face. The acne presented as active inflammatory reaction or as visible white liquid-filled extrusions. For the purposes of the test, the affected area was split into two sections, left cheek and right cheek. The right face was treated with 0.5% theobromine topical preparation solution. The theobromine solution was prepared in 25% ethanol and 50% glycerol, adjusted to pH 8 via 100 mM sodium hydrogen carbonate solution.
For the purposes of the treatment, theobromine solution was applied to the right side of the face in a thin film using 100-200 μL of the solution (2-4 drops). The solution was left to dry and penetrate the skin for 20 minutes, after which both sides of the face were covered in the photosensitizer cream as per manufacturer's instructions, using 1-1.5 g of cream. The cream was left to penetrate the skin for 5-10 minutes and the patient was asked not to wash their face for 2 hours.
The patient was assessed first prior to treatment and subsequently 1 month after for the success and quantification of active acne on each side of the face by a qualified dermatologist.
as §1, with “The left” for “The right”
For the purposes of the treatment, theobromine solution was applied to the left side of the face in a thin film using 100-200 μL of the solution (2-4 drops). […]
The patient was assessed first prior to treatment and subsequently 6 weeks after for the success and quantification of active acne on each side of the face by a qualified dermatologist.

[9] = tested on: PARP; conditions: only compound with activity on PARP in addition to ATM and ATR; cited from earlier work

Q: With `Cn1c(=O)c2c(ncn2C)n(C)c1=O` [caffeine] as the compound, how does the ATM inhibition [1] read?
A: The ATM inhibition was “inhibitors of both ATM and ATR”.

Q: What about the radiosensitising activity [2] of the same compound?
A: The radiosensitising activity was “radiosensitisers”.

Q: What about the ATR inhibition [3] of the same compound?
A: The ATR inhibition was “inhibitors of both ATM and ATR”.

Q: Which “average clearance of active lesions” value [4] does the source give for `COC(=O)CCC(=O)CN` [methyl aminolevulinate] here?
A: Its value is 32%.

Q: With `CC(=O)CCCCn1c(=O)c2c(ncn2C)n(C)c1=O` [pentoxyphilline] as the compound, how does the “clinical benefit as radiosensitiser” value [5] read?
A: The value was “failed to provide consistent benefits”.

Q: And the radiosensitising activity [2]?
A: The radiosensitising activity was “radiosensitisers”.

Q: For `Cn1cnc2c1c(=O)[nH]c(=O)n2C` [theobromine], which “inhibition of DNA repair” value [6] is on record?
A: The value was “inhibit DNA repair in vitro”.

Q: And the “improvement of actinic keratosis” value ([7]; no photosensitizer)?
A: The value was “No improvement of actinic keratoses was observed; also recorded: No improvement of actinic keratosis was observed”.

Q: What about the redness or soreness [7] of the same compound?
A: The redness or soreness was “No redness or soreness were observed”.

Q: What about the patient-reported adverse effects ([8]; 1 month (Examples 8, 9, 10) or 6 weeks (Example 11)) of the same compound?
A: Its patient-reported adverse effects is “No patient-reported adverse effects”.

Q: What about the improvement of acne ([8]; 1 month after (Examples 8, 9, 10)) of the same compound?
A: The improvement of acne was “did not improve acne”.

Q: And the improvement of acne ([8]; 6 weeks after (Example 11))?
A: Its improvement of acne is “did not improve acne”.

Q: And the ATM inhibition [1]?
A: Its ATM inhibition is “inhibitors of both ATM and ATR”.

Q: What about the radiosensitising activity [2] of the same compound?
A: The radiosensitising activity was “radiosensitisers”.

Q: And the PARP inhibitory activity [9]?
A: Its PARP inhibitory activity is “measurable PARP inhibitory activity”.

Q: What about the ATR inhibition [3] of the same compound?
A: Its ATR inhibition is “inhibitors of both ATM and ATR”.

Q: Which radiosensitising activity [2] does the source give for `Cn1c(=O)c2[nH]cnc2n(C)c1=O` [theophylline] here?
A: Its radiosensitising activity is “radiosensitisers”.
